Source: patent publication US20240309015A1, “Methods for the Treatment of Fibrotic Disease” (SHY Therapeutics, LLC, priority 2021, published 2024)

Columns and labels:
[1] = tested on: KRas G12D mutant; assay: Ras GTP Binding Domain Inhibition Assay, KRas G12D mutant; details: at 20 μM; for KRas G12D mutant + SOS: % inh.: with SOS; for KRas G12D mutant: % inh.: without SOS
Procedure: (§1) A Ras Superfamily Activity Assay (as disclosed in International Application No. PCT/US2018/038613, filed Jun. 20, 2018, which is incorporated by reference in its entirety) was used as a specific assay to evaluate compounds against the following for the following Ras Superfamily proteins: KRas wild type, KRas Q61H mutant, KRas G12C mutant, KRas G12D mutant, Rac-1, and Rho-A.
(§2) Buffer-I: • 25 mM Tris-HCl, pH 7.4 • 27 mM KCl • 137 mM NaCl • 1 mM MgCl2 • 1 mM DTT
(§3) Buffer-IL: • 50 mM Tris-HCl, pH 7.0 • 1 mM MgCl2 • 1 mM DTT
(§4) The small GTPases proteins: KRas wild type. KRas Q61H mutant, KRas G12C mutant, KRas G12D mutants, Rac-1, and Rho-A were expressed as His-tagged proteins. In addition, the Guanosine nucleotide Exchange Factor (GEF) Sos protein (residues 556-1049) was expressed as a His-tagged protein. In cells, the guanine nucleotide exchange factor Sos protein promotes activation of Ras proteins by stimulating an exchange of GDP for GTP. The inclusion of Sos to the Ras GTP binding domain inhibition assay may be considered as an alternative representation of physiological cellular conditions for evaluating the inhibitory activity of some of the tested small molecules.
(§5) For the assay, all purified small GTPases proteins were diluted in Buffer-I or Buffer-II to a final concentration of 10-30 μg/mL. 200 μL of each diluted protein was added to a nickel-coated 96-well plate and incubated overnight at 4° C. Then the protein solution was discarded and 200 μL of Buffer-I or Buffer-II was added to each well in the presence of 1% DMSO. Compounds to be tested were added to the protein-coated wells at final concentration of 20 μM, and incubated for 3 hours at room temperature with and without 10-30 μg/mL of Sos added to the final hour of the incubation. When performing IC50 measurements a serial dilution of all tested concentrations was added. Then Cy3-GTP or Cy5-GTP was added to each well to a final concentration of 100 nM. The labeled GTP was incubated for 45 minutes at room temperature. Following GTP incubation, wells were washed 3× in Buffer-I or Buffer-II and 200 μL of Buffer-I or Buffer-II was added to each well. Following washes, the amount of bound labeled-GTP was measured using a SpectraMax M3 (Molecular Devices).

[2] = tested on: KRas wild type; assay: Ras GTP Binding Domain Inhibition Assay, KRas wild type; details: at 20 μM; for KRas wild type + SOS: % inh.: with SOS; for KRas wild type: % inh.: without SOS
Procedure: as §1, §2, §3, §4, §5

[3] = tested on: KRas G12C mutant; assay: Ras GTP Binding Domain Inhibition Assay, KRas G12C mutant; details: at 20 μM; for KRas G12C mutant: % inh.: without SOS; for KRas G12C mutant + SOS: % inh.: with SOS
Procedure: as §1, §2, §3, §4, §5

[4] = tested on: Rho-A; assay: Ras GTP Binding Domain Inhibition Assay, Rho-A; details: at 20 μM; for Rho-A: % inh.: without SOS; for Rho-A + SOS: % inh.: with SOS
Procedure: as §1, §2, §3, §4, §5

SMILES | KRas G12D mutant + SOS: % inh. ([1]; Table 7) | KRas G12D mutant + SOS: % inh. ([1]; Table 8) | KRas G12D mutant: % inh. ([1]; Table 7) | KRas G12D mutant: % inh. ([1]; Table 8) | KRas wild type + SOS: % inh. [2] | KRas wild type: % inh. [2] | KRas G12C mutant: % inh. [3] | Rho-A: % inh. [4] | KRas G12C mutant + SOS: % inh. [3] | Rho-A + SOS: % inh. [4]
COCCNc1nc(-c2nccn2C)nc2sc(-c3ccccc3)c(-c3ccccc3)c12 [Compound 1, N-(2-Methoxyethyl)-2-(1-methyl-1H-imidazol-2-yl)-5,6-diphenylthieno[2,3-d]pyrimidin-4-amine] | A (A = 1-25% inhibition) | A (A = 1-25% inhibition) | D (D = 76-100% inhibition) | D (D = 76-100% inhibition) | A (A = 1-25% inhibition) | A (A = 1-25% inhibition) | C (C = 46-75% inhibition) | C (C = 46-75% inhibition) | – | –
COCCNc1nc(-c2cn(C)cn2)nc2sc(-c3cccc(OC)c3Cl)c(-c3ccc(OC)cc3)c12 [Compound 8, 6-(2-Chloro-3-methoxyphenyl)-N-(2-methoxyethyl)-5-(4-methoxyphenyl)-2-(1-methyl-1H-imidazol-4-yl)thieno[2,3-d]pyrimidin-4-amine] | B (B = 26-45% inhibition) | B (B = 26-45% inhibition) | B (B = 26-45% inhibition) | B (B = 26-45% inhibition) | D (D = 76-100% inhibition) | C (C = 46-75% inhibition) | B (B = 26-45% inhibition) | C (C = 46-75% inhibition) | D (D = 76-100% inhibition) | C (C = 46-75% inhibition)
COCCCNc1nc(-c2nccn2C)nc2sc(-c3ccccc3)c(-c3ccccc3)c12 [Compound 3, N-(3-Methoxypropyl)-2-(1-methyl-1H-imidazol-2-yl)-5,6-diphenylthieno[2,3-d]pyrimidin-4-amine] | A (A = 1-25% inhibition) | A (A = 1-25% inhibition) | C (C = 46-75% inhibition) | C (C = 46-75% inhibition) | A (A = 1-25% inhibition) | C (C = 46-75% inhibition) | C (C = 46-75% inhibition) | C (C = 46-75% inhibition) | – | –
COC1CCN(c2nc(-c3nccn3C)nc3sc(-c4ccn(C)n4)c(-c4ccccc4)c23)CC1 [Compound 6, 4-(4-Methoxypiperidin-1-yl)-2-(1-methyl-1H-imidazol-2-yl)-6-(1-methyl-1H-pyrazol-3-yl)-5-phenylthieno[2,3-d]pyrimidine] | B (B = 26-45% inhibition) | B (B = 26-45% inhibition) | B (B = 26-45% inhibition) | B (B = 26-45% inhibition) | B (B = 26-45% inhibition) | 0 (0 = 0% inhibition) | B (B = 26-45% inhibition) | 0 (0 = 0% inhibition) | C (C = 46-75% inhibition) | 0 (0 = 0% inhibition)
CO[C@@H]1CC[C@H](Nc2nc(-c3nccn3C)nc3sc(-c4ccn(C(C)C)n4)c(-c4ccccc4)c23)C1 [Compound 11, 6-(1-Isopropyl-1H-pyrazol-3-yl)-N-((1S,3R)-3-methoxycyclopentyl)-2-(1-methyl-1H-imidazol-2-yl)-5-phenylthieno[2,3-d]pyrimidin-4-amine] | C (C = 46-75% inhibition) | C (C = 46-75% inhibition) | C (C = 46-75% inhibition) | C (C = 46-75% inhibition) | D (D = 76-100% inhibition) | C (C = 46-75% inhibition) | C (C = 46-75% inhibition) | B (B = 26-45% inhibition) | D (D = 76-100% inhibition) | B (B = 26-45% inhibition)
COc1cccc(-c2sc3nc(-c4nccn4C)nc(NC4CCC(OC)C4)c3c2C)c1F (racemic) [Compound 10, rac-6-(2-Fluoro-3-methoxyphenyl)-N-((1R,3S)-3-methoxycyclopentyl)-5-methyl-2-(1-methyl-1H-imidazol-2-yl)thieno[2,3-d]pyrimidin-4-amine and rac-6-(2-Fluoro-3-methoxyphenyl)-N-((1R,3R)-3-methoxycyclopentyl)-5-methyl-2-(1-methyl-1H-imidazol-2-yl)thieno[2,3-d]pyrimidin-4-amine] | C (C = 46-75% inhibition) | C (C = 46-75% inhibition) | D (D = 76-100% inhibition) | D (D = 76-100% inhibition) | C (C = 46-75% inhibition) | C (C = 46-75% inhibition) | D (D = 76-100% inhibition) | D (D = 76-100% inhibition) | C (C = 46-75% inhibition) | D (D = 76-100% inhibition)
CO[C@H]1CC[C@@H](Nc2nc(-c3nccn3C)nc3sc(-c4ccn(C(C)C)n4)c(C)c23)C1 (racemic) [Compound 12, rac-6-(1-Isopropyl-1H-pyrazol-3-yl)-N-((1R,3S)-3-methoxycyclopentyl)-5-methyl-2-(1-methyl-1H-imidazol-2-yl)thieno[2,3-d]pyrimidin-4-amine] | C (C = 46-75% inhibition) | C (C = 46-75% inhibition) | C (C = 46-75% inhibition) | C (C = 46-75% inhibition) | D (D = 76-100% inhibition) | D (D = 76-100% inhibition) | C (C = 46-75% inhibition) | D (D = 76-100% inhibition) | D (D = 76-100% inhibition) | D (D = 76-100% inhibition)
COCCNc1nc(-c2nccn2C)nc2sc(-c3ccccc3)c(-c3ccccc3Cl)c12 [Compound 4, 5-(2-Chlorophenyl)-N-(2-methoxyethyl)-2-(1-methyl-1H-imidazol-2-yl)-6-phenylthieno[2,3-d]pyrimidin-4-amine] | – | – | B (B = 26-45% inhibition) | B (B = 26-45% inhibition) | – | A (A = 1-25% inhibition) | B (B = 26-45% inhibition) | B (B = 26-45% inhibition) | – | –
COCCN(C)c1nc(-c2nccn2C)nc2sc(-c3ccccc3)c(-c3ccccc3)c12 [Compound 2, N-(2-Methoxyethyl)-N-methyl-2-(1-methyl-1H-imidazol-2-yl)-5,6-diphenylthieno[2,3-d]pyrimidin-4-amine] | – | – | C (C = 46-75% inhibition) | C (C = 46-75% inhibition) | – | C (C = 46-75% inhibition) | B (B = 26-45% inhibition) | B (B = 26-45% inhibition) | – | –
COCCn1ccnc1-c1nc(N[C@H]2C[C@@H](OC)C2)c2c(-c3ccccc3)c(-c3ccn(C)n3)sc2n1 [Compound 13, N-((1s,3s)-3-methoxycyclobutyl)-2-(1-(2-methoxyethyl)-1H-imidazol-2-yl)-6-(1-methyl-1H-pyrazol-3-yl)-5-phenylthieno[2,3-d]pyrimidin-4-amine] | D (D = 76-100% inhibition) | D (D = 76-100% inhibition) | C (C = 46-75% inhibition) | C (C = 46-75% inhibition) | D (D = 76-100% inhibition) | D (D = 76-100% inhibition) | D (D = 76-100% inhibition) | D (D = 76-100% inhibition) | D (D = 76-100% inhibition) | D (D = 76-100% inhibition)
